# According to patent US10208033B2, “β-carboline, dihydro-β-carboline and tetrahydro-β-carboline alkaloid derivatives and preparation methods same and use in aspects of preventing and treating plant viruses, fungicides and insecticides” (NANKAI UNIVERSITY, priority 2013, dated 2019):
# Read-outs that look alike come from different tables or passages of the source.
# Experiments:
# [1] = tested on: tobacco mosaic virus (TMV); experiment: Anti-TMV in vitro effect (half-leaf soaking); format: cell-based, tobacco mosaic virus (host Nicotiana tabacum L.cv.Xanthi NN)
# [2] = tested on: tobacco mosaic virus (TMV); experiment: Anti-TMV in vivo inactivation; set-up: species or system tobacco mosaic virus (host Nicotiana tabacum L.cv.Xanthi NN)
# [3] = tested on: tobacco mosaic virus (TMV); experiment: Anti-TMV in vivo therapeutic effect; set-up: species or system tobacco mosaic virus (host Nicotiana tabacum L.cv.Xanthi NN)
# [4] = tested on: tobacco mosaic virus (TMV); experiment: Anti-TMV in vivo protective effect; set-up: species or system tobacco mosaic virus (host Nicotiana tabacum L.cv.Xanthi NN)
# cucumber fusarium wilt = experiment: Fungicidal (bactericidal) activity in vitro, PDA colony diameter; format: cell-based; settings: 50 mg/kg
# Cercospora arachidicola = experiment: as above; format: cell-based; settings: 50 mg/kg
# Macrophoma kawatsukai = experiment: as above; format: cell-based; settings: 50 mg/kg
# Alternaria solani = experiment: as above; format: cell-based; settings: 50 mg/kg
# Fusarium graminearumt = experiment: microbe, parasite or virus in culture; format: cell-based; settings: 50 mg/kg
# potato late blight = experiment: microbe, parasite or virus in culture; format: cell-based
# Sclerotinia scleotiorum = experiment: Fungicidal (bactericidal) activity in vitro, PDA colony diameter; format: cell-based; settings: 50 mg/kg
# Botrytis cinerea = experiment: as above; format: cell-based; settings: 50 mg/kg
# Rhizoctonia solani = experiment: as above; format: cell-based; settings: 50 mg/kg
# Phytophthora capsici = experiment: as above; format: cell-based; settings: 50 mg/kg
# Fusarium fujikuroi = experiment: as above; format: cell-based; settings: 50 mg/kg
# Rhizoctonia cereali = experiment: as above; format: cell-based; settings: 50 mg/kg
# Bipolaria maydis = experiment: organism not typed; format: cell-based; settings: 50 mg/kg
# [5] = tested on: Colletotrichum orbiculare; experiment: Fungicidal (bactericidal) activity in vitro, PDA colony diameter; format: cell-based; settings: 50 mg/kg
# armyworms = format: in vivo; settings: concentration 600 mg/kg
# cotton bollworms = experiment: whole plant or invertebrate
# Description: Experimental method of cotton bollworms: feed and drug mixing method: measure 3 mL of prepared solution and add it to about 27 g of newly prepared feed, thereby obtaining needed concentration through dilution by 10 times.
# mosquito larvae = experiment: whole plant or invertebrate
# Method in brief: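 Compound dissolved in acetone (or other solvent) to a 1000 ppm stock and diluted in water to 5 ppm. Ten Culex pipiens pallens larvae at the start of the fourth instar, laboratory-reared, added per beaker; solvent-only aqueous control.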
Structure (SMILES),Relative inhibition rate (%) In vitro activity ([1]; treatment dose 100 μg/mL) [%],Relative inhibition rate (%) In vitro activity ([1]; treatment dose 500 μg/mL) [%],Relative inhibition rate (%) In vivo inactivation ([2]; treatment dose 100 μg/mL) [%],Relative inhibition rate (%) In vivo inactivation ([2]; treatment dose 500 μg/mL) [%],Relative inhibition rate (%) In vivo therapy ([3]; treatment dose 100 μg/mL) [%],Relative inhibition rate (%) In vivo therapy ([3]; treatment dose 500 μg/mL) [%],Relative inhibition rate (%) In vivo protection ([4]; treatment dose 100 μg/mL) [%],Relative inhibition rate (%) In vivo protection ([4]; treatment dose 500 μg/mL) [%],Bactericidal activity (%) Cucumber fusarium wilt (cucumber fusarium wilt) [%],Bactericidal activity (%) Cercospora arachidicola (Cercospora arachidicola) [%],Bactericidal activity (%) Macrophoma kawatsukai (Macrophoma kawatsukai) [%],Bactericidal activity (%) Alternaria solani (Alternaria solani) [%],Bactericidal activity (%) Fusarium graminearumt (Fusarium graminearumt) [%],Bactericidal activity (%) potato late blight (potato late blight) [%],Bactericidal activity (%) Sclerotinia scleotiorum (Sclerotinia scleotiorum) [%],Bactericidal activity (%) Botrytis cinerea (Botrytis cinerea) [%],Bactericidal activity (%) Rhizoctonia solani (Rhizoctonia solani) [%],Bactericidal activity (%) Phytophthora capsici (Phytophthora capsici) [%],Bactericidal activity (%) Fusarium fujikuroi (Fusarium fujikuroi) [%],Bactericidal activity (%) Rhizoctonia cereali (Rhizoctonia cereali) [%],also measured
"COc1ccccc1C=NNC(=O)[C@@H]1Cc2c([nH]c3ccccc23)[C@H](C)N1 [Ic-10, (1S, 3S)—N′-(2-methoxybenzylidene)-1-methyl-2,3,4,9-tetrahydropyridino [3,4-b] indol-3-formylhydrazine]",0,38.5,0,43.2,10.9,36.4,0,34.8,26.9,23.5,88.9,45.0,72.4,44.0,64.7,77.3,32.9,63.2,21.4,78.4,"Bactericidal activity (%) Bipolaria maydis (Bipolaria maydis): 56.0%; Bactericidal activity (%) Colletotrichum orbiculare [5]: 40.7%; Armyworm Mortality (%) (armyworms): 25%; Cotton bollworm Mortality (%) (cotton bollworms; concentration 600 mg/kg): 30%; Mosquito larvae Mortality (%) (mosquito larvae; concentration 10 mg/kg, 24 h): 50%; Corn borer Mortality (%) (corn borers; concentration 600 mg/kg): 30%"
C[C@@H]1N[C@H](C(=O)NN=Cc2ccc3c(c2)OCCO3)Cc2c1[nH]c1ccccc21 [Ic-13],19.8,46.5,15.2,43.6,18.6,48.1,10.3,46,22.7,45.5,66.7,52.4,30.8,30.4,21.2,66.7,44.4,84.8,47.1,89.2,"Bactericidal activity (%) Bipolaria maydis (Bipolaria maydis): 52.0%; Bactericidal activity (%) Colletotrichum orbiculare [5]: 72.0%; Armyworm Mortality (%) (armyworms): 30%; Cotton bollworm Mortality (%) (cotton bollworms; concentration 600 mg/kg): 15%; Mosquito larvae Mortality (%) (mosquito larvae; concentration 10 mg/kg, 24 h): 60%; Corn borer Mortality (%) (corn borers; concentration 600 mg/kg): 35%"
"C[C@@H]1N[C@H](C(=O)NN=Cc2ccc3cc(O)ccc3c2)Cc2c1[nH]c1ccccc21 [Ic-14, (1S, 3S)—N′-(6-hydroxynaphthalene-2-methylene)-1-methyl-2,3,4,9-tetrahydropyridino [3,4-b] indol-3-formylhydrazine]",0,40.9,16.9,45.6,8.2,43.9,0,47.8,19.2,47.1,77.8,30.0,10.3,44.0,88.2,72.7,28.9,84.2,28.6,86.3,"Bactericidal activity (%) Bipolaria maydis (Bipolaria maydis): 56.0%; Bactericidal activity (%) Colletotrichum orbiculare [5]: 48.1%; Armyworm Mortality (%) (armyworms): 40%; Cotton bollworm Mortality (%) (cotton bollworms; concentration 600 mg/kg): 35%; Mosquito larvae Mortality (%) (mosquito larvae; concentration 10 mg/kg, 24 h): 75%; Corn borer Mortality (%) (corn borers; concentration 600 mg/kg): 45%"
"C[C@@H]1N[C@H](C(=O)NN=Cc2ccncc2)Cc2c1[nH]c1ccccc21 [Ic-15, (1S, 3S)—N′-(pyridine-4-methylene)-1-methyl-2,3,4,9-tetrahydropyridino [3,4-b] indol-3-formylhydrazine]",0,36.6,8.8,43.4,12.9,39.6,0,37.5,23.1,35.3,52.8,15.0,27.6,24.0,64.7,36.4,23.7,28.9,21.4,66.7,Bactericidal activity (%) Bipolaria maydis (Bipolaria maydis): 28.0%; Bactericidal activity (%) Colletotrichum orbiculare [5]: 29.6%; Armyworm Mortality (%) (armyworms): 15%; Cotton bollworm Mortality (%) (cotton bollworms; in vivo): 15%; Mosquito larvae Mortality (%) (mosquito larvae; in vivo): 30%; Corn borer Mortality (%) (corn borers; in vivo): 20%
"C[C@@H]1N[C@H](C(=O)NN=Cc2cccnc2)Cc2c1[nH]c1ccccc21 [Ic-16, (1S, 3S)—N′-(pyridine-3-methylene)-1-methyl-2,3,4,9-tetrahydropyridino [3,4-b] indol-3-formylhydrazine]",0,33.3,11.2,41,5.7,36.9,0,33.6,38.5,41.2,83.3,15.0,62.1,52.0,35.3,54.5,39.5,26.3,50.0,80.4,Bactericidal activity (%) Bipolaria maydis (Bipolaria maydis): 32.0%; Bactericidal activity (%) Colletotrichum orbiculare [5]: 40.7%; Armyworm Mortality (%) (armyworms): 20%; Cotton bollworm Mortality (%) (cotton bollworms; in vivo): 10%; Mosquito larvae Mortality (%) (mosquito larvae; in vivo): 40%; Corn borer Mortality (%) (corn borers; in vivo): 30%
"C[C@@H]1N[C@H](C(=O)NN=Cc2ccccn2)Cc2c1[nH]c1ccccc21 [Ic-17, (1S, 3S)—N′-(pyridine-2-methylene)-1-methyl-2,3,4,9-tetrahydropyridino [3,4-b] indol-3-formylhydrazine]",0,32.7,9.2,38.9,0,36.8,0,31.4,23.1,23.5,75.0,20.0,20.7,12.0,5.9,36.4,21.1,18.4,21.4,41.2,Bactericidal activity (%) Bipolaria maydis (Bipolaria maydis): 16.0%; Bactericidal activity (%) Colletotrichum orbiculare [5]: 25.9%; Armyworm Mortality (%) (armyworms): 25%; Cotton bollworm Mortality (%) (cotton bollworms; in vivo): 20%; Mosquito larvae Mortality (%) (mosquito larvae; in vivo): 50%; Corn borer Mortality (%) (corn borers; in vivo): 20%
